Measured values reported in US20220408724A1, “METHOD FOR CONTROLLING METABOLISM OF BRANCHED FATTY ACID” (KAO CORPORATION, priority 2019, published 2022).

Tests used:
Moraxella osloensis = test: Examination example: suppression of metabolism of 14-methylhexadecanoic acid, components (a) and (b)/(b′); type: cell-based; settings: single agent 100 μg/fabric g
Experimental: The suppression of metabolism of 14-methylhexadecanoic acid by bacteria of the genus Moraxella and the suppression of a metabolite therefrom were tested in the following manner.
Moraxella osloensis (strain isolated from clothing) was precultured on an SCD-LP agar medium (NIHON PHARMACEUTICAL CO., LTD.) at 37° C.; for 24 hours, and a bacterial suspension of 10^6 (CFU/ml) was prepared by using an NB liquid medium (Difco) diluted to 1/20 with ion exchange water.
A methanol solution in which 14-methylhexadecanoic acid (SIGMA-ALDRICH) was dissolved was added dropwise to 3 cm×3 cm pieces of sterilized plain-weave cotton fabric to make it adhered to the fabric. The adhesion amount of 14-methylhexadecanoic acid was set to 10 μg per piece of the plain-weave cotton fabric (100 μg/fabric g). Further, a methanol solution in which component (a) was dissolved, and then, a methanol solution in which component (b) or (b′) was dissolved were added dropwise to the fabric to which 14-methylhexadecanoic acid adhered, and it was thereafter dried for an hour. This fabric was placed in a sterilized screw tube bottle No. 3 (Maruemu Corporation) and 100 μl of the bacterial suspension was inoculated thereto, and culture was carried out under 37° C.; conditions for 21 hours.
3 ml of methanol was added to the screw tube bottle after culture, and extraction was carried out under ultrasonic irradiation for 30 minutes (20° C.). The extraction liquid was mixed with a (trimethylsilyl)diazomethane hexane solution (FUJIFILM Wako Pure Chemical Corporation) at 9:1 (volume ratio) and left overnight under room temperature and dark place conditions. After that, 14-methylhexadecanoic acid remaining on the fabric was quantified by GC. The quantification conditions for GC are as follows. • GC: Agilent 6890N • GC column: Agilent DB-1 30 m×250 μm×0.25 μm • Temperature rise condition: 50° C. (held for 3 minutes)-(10° C./min)-300° C. (held for 5 minutes) • Sample injection volume: 1 μl • Split ratio: 1:12 • Detector: FID
The residual amount of 14-methylhexadecanoic acid after culture on the fabric to which each metabolism controlling agent was added was quantified, and the ratio of the residual amount to that of 14-methylhexadecanoic acid in the case of adding no metabolism controlling agent (control) was calculated as a metabolism suppression rate (%). The higher a numerical value thereof is, the more the metabolism is suppressed. Note that the metabolism suppression rate was determined by the following formula:
Metabolism suppression rate(%)=[1−(100−A)/(100−B)]×100 • A: residual amount of 14-methylhexadecanoic acid of reference or examination example (μg/fabric g) • B: residual amount of 14-methylhexadecanoic acid of control (μg/fabric g)
A control is an example in which none of component (a), (b) or (b′) is added, and references 1-1, 2-1, 3-1 and 4-1 qualify as this (the same applies hereinafter). In these controls, the metabolism suppression rate is 0′.

Staphylococcus aureus = test: Measurement of viable bacterial count on fabric; type: cell-based
Experimental: After culture on fabric prepared in the same manner as in the above (1), 9 mL of an LP diluent (manufactured by NIHON PHARMACEUTICAL CO., LTD.) was added, and the extraction of the bacteria was carried out under ultrasound for 10 minutes. The extraction liquid was poured and mixed to an SCD-LP agar medium (NIHON PHARMACEUTICAL CO., LTD.), and culture was thereafter carried out at 37° C.; for a day. The number of colonies obtained on each piece of the fabric was counted, and a common logarithm value thereof was measured as the viable bacterial count. […] In addition, the […], the more the viable bacterial count of the microorganism is maintained.
The metabolism of 14-methylhexadecanoic acid by bacteria of the genus Staphylococcus (Staphylococcus aureus) was tested in the same manner as in example 1.
In this example, Staphylococcus aureus (strain isolated from clothing) was used as a microorganism.
Further, in this example, a bacterial suspension of 10^7 (CFU/ml) prepared by using an NB liquid medium diluted to 1/10 with ion exchange water was used as a bacterial suspension.
Note that, in this example, C12OH (1-dodecanol) was used as the metabolism controlling agent.

CCCCCCCCCCCCO [Example C12OH, 1-dodecanol]
Metabolism of branched fatty acid: Residual amount (μg/fabric g) (Moraxella osloensis; 14-methylhexadecanoic acid): 59 μg/fabric g | Metabolism of branched fatty acid: Metabolism suppression rate (%) (Moraxella osloensis): 33% | Bacterial count (Log (cfu/fabric cm^2)) (Staphylococcus aureus; agent 100 μg/fabric g): 6.4 Log (cfu/fabric cm^2) | Bacterial count (Log (cfu/fabric cm^2)) (Staphylococcus aureus; agent 500 μg/fabric g): 6.2 Log (cfu/fabric cm^2)
